Source: patent US11865098B1, “Methods and compositions for treating excessive sleepiness” (Axsome Malta Ltd., priority 2017, dated 2024)

Key:
[1] = test system: adult patients with OSA and ES; assay: Safety and tolerability (TEAEs, vital signs), 12-week parallel study in OSA; type: in vivo, human; settings: for Anxiety, incidence / Any TEAE, incidence / Decreased appetite, incidence / Diarrhea, incidence / Discontinuations due to TEAEs, incidence / Dry mouth, incidence / Feeling jittery, incidence / Headache, incidence / Insomnia, incidence / Irritability, incidence / Nasopharyngitis, incidence / Nausea, incidence / Pruritus, incidence / Serious TEAEs, incidence / Sinusitis, incidence: safety population
Method: The study was a 12-week, double-blind, placebo-controlled, parallel design study as described in greater detail in Example 1 (Schweitzer et al., Sleep 40(Abstract Supplement):A237. Abstract 0641 (2017)). Patients were randomized (1:1:2:2:2) to APC 37.5, 75, 150, 300 mg, or placebo for 12 weeks, and were stratified by adherence or non-adherence with primary OSA therapy (adherent definition was use for ≥4 hours per night on >70% of nights). Two patient-reported measures were included as secondary efficacy outcomes to evaluate the effects of APC on functional status and work productivity and activity impairment at baseline and weeks 1, 4, 8, and 12. The Functional Outcomes of Sleep questionnaire short version (FOSQ-10) (Chasens et al., Sleep 32(7):915 (2009)) evaluated the effects of ES on functioning. The Work Productivity and Activity Impairment questionnaire for Specific Health Problems (WPAI:SHP) (Reilly et al., Pharmacoeconomics 4(5):353 (1993); Reilly, Work Productivity and Activity Impairment Questionnaire: Specific Health Problem V2.0 (WPAI: SHP). www.reillyassociates.net/WPAI_SHP) evaluated work productivity impairment among employed patients and overall activity impairment outside of work among all patients for the past 7 days. Four outcomes are available from the WPAI:SHP: Absenteeism (percent work time missed due to health); Presenteeism (percent impairment while working due to health); Percent overall work impairment (calculated from absenteeism and presenteeism); and Percent activity impairment due to health. The FOSQ-10 was evaluated as change over time compared with placebo (least squares (LS) mean); the 4 WPAI outcomes were evaluated at week 12 compared to placebo. Efficacy analyses were based on the modified intent-to-treat population (mITT) and there was no multiplicity adjustment for the FOSQ-10 or WPAI:SHP. Safety and tolerability were assessed based on treatment-emergent adverse events (TEAEs), vital signs, electrocardiogram test, physical exams, Columbia-Suicide Severity Rating Scale, and laboratory tests in the safety population.
Efficacy analyses were based on the modified intent-to-treat (mITT) population; there was no multiplicity adjustment for the SF-36 v2 or EQ-5D-5L. SF-36 v2 scores were scaled from 0 to 100 (higher scores on all scales represent better health), transformed to norm-based scores using US general-population data from SF-36 Manuals (Ware Jr et al., User's Manual for the SF-36v2™ Health Survey (2nd ed.). QualityMetric Incorporated (Lincoln, RI); 2007), and were analyzed using a mixed-effect model with repeated measures (MMRM); and baseline value of the efficacy endpoint was used to determine differences in changes from baseline. EQ-5D-5L VAS and index-score data were analyzed using an MMRM model. Safety and tolerability were assessed based on treatment-emergent adverse events (TEAEs), vital signs, electrocardiogram test, physical exams, and laboratory tests.

[2] = test system: adult patients with OSA and ES; assay: ESS, 12-week placebo-controlled parallel study in OSA; type: in vivo, human; settings: 37.5, 75, 150, 300 mg; week 12
Method: The ESS is a subjective sleepiness test that is well known in the art and routinely used to measure the sleepiness level of a subject. The scale is intended to measure daytime sleepiness through the use of a short questionnaire that asks the subject to rate his or her probability of falling asleep on a scale of increasing probability from 0 to 3 for eight different situations that most people engage in during their daily lives. The scores for the eight questions are added together to obtain a single number that estimates the subject's average sleep propensity (ASP). […]
The study was a 12-week, double-blind, placebo-controlled, parallel design study as described in greater detail in Example 1 (Schweitzer et al., Sleep 40(Abstract Supplement):A237. Abstract 0641 (2017)). […] The Functional Outcomes of Sleep questionnaire short version (FOSQ-10) (Chasens et al., Sleep 32(7):915 (2009)) evaluated the effects of ES on functioning. The Work Productivity and Activity Impairment questionnaire for Specific Health Problems (WPAI:SHP) (Reilly et al., Pharmacoeconomics 4(5):353 (1993); Reilly, Work Productivity and Activity Impairment Questionnaire: Specific Health Problem V2.0 (WPAI: SHP). www.reillyassociates.net/WPAI_SHP) evaluated work productivity impairment among employed patients and overall activity impairment outside of work among all patients for the past 7 days. […]

SMILES: NC(=O)OC[C@H](N)Cc1ccccc1 [JZP-110, (R)-2-amino-3-phenylpropyl carbamate]
- Serious TEAEs reported (events) ([1]; 37.5 mg): bile duct obstruction (n=1) and streptococcal endocarditis (n=1)
- Anxiety, incidence ([1]; 37.5 mg (n = 58)): 1 (1.7) n (%)
- Any TEAE, incidence ([1]; 37.5 mg (n = 58)): 37 (63.8) n (%)
- Decreased appetite, incidence ([1]; 37.5 mg (n = 58)): 1 (1.7) n (%)
- Diarrhea, incidence ([1]; 37.5 mg (n = 58)): 1 (1.7) n (%)
- Discontinuations due to TEAEs, incidence ([1]; 37.5 mg (n = 58)): 3 (5.2) n (%)
- Dry mouth, incidence ([1]; 37.5 mg (n = 58)): 1 (1.7) n (%)
- Feeling jittery, incidence ([1]; 37.5 mg (n = 58)): 3 (5.2) n (%)
- Headache, incidence ([1]; 37.5 mg (n = 58)): 4 (6.9) n (%)
- Insomnia, incidence ([1]; 37.5 mg (n = 58)): 1 (1.7) n (%)
- Irritability, incidence ([1]; 37.5 mg (n = 58)): 3 (5.2) n (%)
- Nasopharyngitis, incidence ([1]; 37.5 mg (n = 58)): 2 (3.4) n (%)
- Nausea, incidence ([1]; 37.5 mg (n = 58)): 3 (5.2) n (%)
- Pruritus, incidence ([1]; 37.5 mg (n = 58)): 3 (5.2) n (%)
- Serious TEAEs, incidence ([1]; 37.5 mg (n = 58)): 2 (3.4) n (%)
- Sinusitis, incidence ([1]; 37.5 mg (n = 58)): 1 (1.7) n (%)
- Serious TEAEs reported (events) ([1]; 37.5 mg, listed as APC): bile duct obstruction (n=1), and streptococcal endocarditis (n=1)
- Anxiety, incidence ([1]; 75 mg (n = 62)): 2 (3.2) n (%)
- Any TEAE, incidence ([1]; 75 mg (n = 62)): 30 (48.4) n (%)
- Decreased appetite, incidence ([1]; 75 mg (n = 62)): 3 (4.8) n (%)
- Diarrhea, incidence ([1]; 75 mg (n = 62)): 3 (4.8) n (%)
- Discontinuations due to TEAEs, incidence ([1]; 75 mg (n = 62)): 2 (3.2) n (%)
- Dry mouth, incidence ([1]; 75 mg (n = 62)): 1 (1.6) n (%)
- Feeling jittery, incidence ([1]; 75 mg (n = 62)): 3 (4.8) n (%)
- Headache, incidence ([1]; 75 mg (n = 62)): 5 (8.1) n (%)
- Insomnia, incidence ([1]; 75 mg (n = 62)): 0 n (%)
- Irritability, incidence ([1]; 75 mg (n = 62)): 0 n (%)
- Nasopharyngitis, incidence ([1]; 75 mg (n = 62)): 1 (1.6) n (%)
- Nausea, incidence ([1]; 75 mg (n = 62)): 3 (4.8) n (%)
- Pruritus, incidence ([1]; 75 mg (n = 62)): 0 n (%)
- Serious TEAEs, incidence ([1]; 75 mg (n = 62)): 0 n (%)
- Sinusitis, incidence ([1]; 75 mg (n = 62)): 4 (6.5) n (%)
- Serious TEAEs reported (events) ([1]; 150 mg): hyperglycemia (n=1)
- Anxiety, incidence ([1]; 150 mg (n = 117)): 6 (5.1) n (%)
- Any TEAE, incidence ([1]; 150 mg (n = 117)): 83 (70.9) n (%)
- Decreased appetite, incidence ([1]; 150 mg (n = 117)): 9 (7.7) n (%)
- Diarrhea, incidence ([1]; 150 mg (n = 117)): 5 (4.3) n (%)
- Discontinuations due to TEAEs, incidence ([1]; 150 mg (n = 117)): 5 (4.3) n (%)
- Dry mouth, incidence ([1]; 150 mg (n = 117)): 5 (4.3) n (%)
- Feeling jittery, incidence ([1]; 150 mg (n = 117)): 1 (0.9) n (%)
- Headache, incidence ([1]; 150 mg (n = 117)): 10 (8.5) n (%)
- Insomnia, incidence ([1]; 150 mg (n = 117)): 3 (2.6) n (%)
- Irritability, incidence ([1]; 150 mg (n = 117)): 4 (3.4) n (%)
- Nasopharyngitis, incidence ([1]; 150 mg (n = 117)): 7 (6.0) n (%)
- Nausea, incidence ([1]; 150 mg (n = 117)): 10 (8.5) n (%)
- Pruritus, incidence ([1]; 150 mg (n = 117)): 1 (0.9) n (%)
- Serious TEAEs, incidence ([1]; 150 mg (n = 117)): 1 (0.9) n (%)
- Sinusitis, incidence ([1]; 150 mg (n = 117)): 0 n (%)
- Anxiety, incidence ([1]; 300 mg (n = 118)): 16 (13.6) n (%)
- Any TEAE, incidence ([1]; 300 mg (n = 118)): 91 (77.1) n (%)
- Decreased appetite, incidence ([1]; 300 mg (n = 118)): 14 (11.9) n (%)
- Diarrhea, incidence ([1]; 300 mg (n = 118)): 8 (6.8) n (%)
- Discontinuations due to TEAEs, incidence ([1]; 300 mg (n = 118)): 15 (12.7) n (%)
- Dry mouth, incidence ([1]; 300 mg (n = 118)): 9 (7.6) n (%)
- Feeling jittery, incidence ([1]; 300 mg (n = 118)): 7 (5.9) n (%)
- Headache, incidence ([1]; 300 mg (n = 118)): 17 (14.4) n (%)
- Insomnia, incidence ([1]; 300 mg (n = 118)): 11 (9.3) n (%)
- Irritability, incidence ([1]; 300 mg (n = 118)): 1 (0.8) n (%)
- Nasopharyngitis, incidence ([1]; 300 mg (n = 118)): 8 (6.8) n (%)
- Nausea, incidence ([1]; 300 mg (n = 118)): 12 (10.2) n (%)
- Pruritus, incidence ([1]; 300 mg (n = 118)): 0 n (%)
- Serious TEAEs, incidence ([1]; 300 mg (n = 118)): 0 n (%)
- Sinusitis, incidence ([1]; 300 mg (n = 118)): 3 (2.5) n (%)
- Mean increase from baseline in diastolic blood pressure ([1]; 12-week OSA study): 1-3 mmHg
- Mean increase from baseline in pulse rate ([1]; 12-week OSA study): 2-5 beats/minute
- Mean increase from baseline in systolic blood pressure ([1]; 12-week OSA study): 1-4 mmHg
- Anxiety, incidence ([1]; All doses (n = 355)): 25 (7.0) n (%)
- Any TEAE, incidence ([1]; All doses (n = 355)): 241 (67.9) n (%)
- Decreased appetite, incidence ([1]; All doses (n = 355)): 27 (7.6) n (%)
- Diarrhea, incidence ([1]; All doses (n = 355)): 17 (4.8) n (%)
- Discontinuations due to TEAEs, incidence ([1]; All doses (n = 355)): 25 (7.0) n (%)
- Dry mouth, incidence ([1]; All doses (n = 355)): 16 (4.5) n (%)
- Feeling jittery, incidence ([1]; All doses (n = 355)): 14 (3.9) n (%)
- Headache, incidence ([1]; All doses (n = 355)): 36 (10.1) n (%)
- Insomnia, incidence ([1]; All doses (n = 355)): 15 (4.2) n (%)
- Irritability, incidence ([1]; All doses (n = 355)): 8 (2.3) n (%)
- Nasopharyngitis, incidence ([1]; All doses (n = 355)): 18 (5.1) n (%)
- Nausea, incidence ([1]; All doses (n = 355)): 28 (7.9) n (%)
- Pruritus, incidence ([1]; All doses (n = 355)): 4 (1.1) n (%)
- Serious TEAEs, incidence ([1]; All doses (n = 355)): 3 (0.8) n (%)
- Sinusitis, incidence ([1]; All doses (n = 355)): 8 (2.3) n (%)
- Co-primary ESS endpoint [2]: met at all doses
